The assay deals with T1, Recombinant human mPGES-1 (Homo sapiens, UniProt O14684).
T1 construct: made in house; host or cells: CHO cells
T1 sequence (O14684 1-152): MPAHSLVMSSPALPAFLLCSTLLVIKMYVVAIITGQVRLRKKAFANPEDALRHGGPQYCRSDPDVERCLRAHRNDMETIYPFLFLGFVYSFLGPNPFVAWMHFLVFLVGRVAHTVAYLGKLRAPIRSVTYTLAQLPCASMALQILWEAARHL
The experiment in a line: In-vitro mPGES-1 inhibitor screening (inhibition of PGE2 formation from PGH2, HTRF detection). The assay is classed as biochemical. Particulars: for inhibition at 1 µM: 1 μM test compound, read-out: Percentage inhibition at 1 μM; for inhibition at 1 µM / inhibition at 10 µM: crude microsomal fraction, 15 μM PGH2; for inhibition at 10 µM: 10 μM test compound, read-out: Percentage inhibition at 10 μM; for IC50: class symbol, concentration response curve. The text has this:
In-Vitro Protocol for Screening of mPGES-1 Inhibitors:
mPGES-1 (microsomal prostaglandin E synthase-1) is a microsomal enzyme that converts endoperoxide substrate PGH2 (prostaglandin H2) to product PGE2 (prostaglandin E2) by isomerization in the presence of reduced glutathione (GSH). mPGES-1 inhibitors were screened by assessing their ability to inhibit formation of PGE2 from PGH2 in presence of mPGES-1 using an anti-PGE2 antibody based detection method. Recombinant human mPGES-1 was generated in-house by expression in CHO cells (Ouellet M et al. (2002), Protein Expression and Purification 26: 489-495). The assay was set up using crude microsomal fractions at protein concentration of 40-60 μg/mL. Test compounds were prepared in 100% dimethyl sulfoxide (DMSO) to obtain 20 mM stock solution and then diluted using assay buffer comprising 0.1 M Potassium phosphate buffer with 2 mM EDTA. The final concentration of DMSO in reaction was 0.5% (v/v). Negative controls were comprised of all assay reagents except the enzyme. Positive controls were comprised of the enzyme reaction in the absence of any inhibitor. Test compounds were incubated for 10 minutes in assay buffer containing 2.5 mM GSH and mPGES-1 enzyme followed by addition of PGH2 at a concentration of 15 μM for 1 minute. The reaction was stopped by addition of Stannous chloride (11 mg/ml) and PGE2 levels were measured (Masse F et al. (2005), Journal of Biomolecular Screening 10(6) 599-605., Goedken R E et al. (2008), Journal of Biomolecular Screening 13(7): 619-625) by HTRF kit (CisBio)).
Inhibition of mPGES-1 enzyme activity was measured using the percent of reaction occurring in the positive control. Concentration response curves were plotted using percent inhibition of maximum enzyme reaction. The IC50 value was calculated from the concentration response curve by nonlinear regression analysis using GraphPad PRISM software.

The term inhibition denotes the drop in the measured response relative to a control, in per cent. By IC50 is commonly meant the concentration that gives 50% inhibition. Consider `CC(C)C(=O)NCc1cnc(C(F)F)c(C(=O)Nc2cccc3c(Oc4cccc(C(F)(F)F)c4)ncnc23)c1` [Example-74, 2-(Difluoromethyl)-5-(isobutyramidomethyl)-N-(4-(3-(trifluoromethyl)phenoxy)quinazolin-8-yl)nicotinamide], for which the inhibition at 1 µM stood at 100%, the inhibition at 10 µM came to 100% and the IC50 is under 50 nM.
As to `CC(C)(C)C(=O)NCc1ccc(Cl)c(C(=O)Nc2cccc3c(Oc4ccc(C(F)(F)F)cc4)ccnc23)c1F` [Example-53, 6-Chloro-2-fluoro-3-(pivalamidomethyl)-N-(4-(4-(trifluoromethyl)phenoxy)quinolin-8-yl)benzamide], the inhibition at 1 µM came to 98.3%, the inhibition at 10 µM turned out to be 98.3% and the IC50 was under 50 nM.
Regarding `CC(C)(C)C(=O)NCc1ccc(Cl)c(C(=O)Nc2ccnc3c(Nc4cccc(C(F)(F)F)c4)cccc23)c1` [Example-19, 2-Chloro-5-(pivalamidomethyl)-N-(8-((3-(trifluoromethyl)phenyl)amino)quinolin-4-yl)benzamide], the inhibition at 1 µM was found to be 97.7%, the inhibition at 10 µM was found to be 98.2% and the IC50 is under 50 nM.
For `CC(C)Nc1ncnc2c(NC(=O)c3c(Cl)ccc(CNC(=O)C(C)C)c3F)cccc12` [Example-77, 6-Chloro-2-fluoro-3-(isobutyramidomethyl)-N-(4-(isopropylamino)quinazolin-8-yl)benzamide] the same measures were 78.4%, 99.9% and under 50 nM.
The like results for `CC(C)(C)C(=O)NCc1ccc(Cl)c(C(=O)Nc2cccc3c(Oc4cccc(C(F)(F)F)c4)ccnc23)c1` [Example-16, 2-Chloro-5-(pivalamidomethyl)-N-(4-(3-(trifluoromethyl)phenoxy)quinolin-8-yl)benzamide] were, in that order, 99%, 99.6% and under 50 nM.
The like results for `CC(C)(C)C(=O)NCc1ccc(Cl)c(C(=O)Nc2cccc3c(NC4CCC(F)(F)CC4)ncnc23)c1F` [Example-20, 6-Chloro-N-(4-((4,4-difluorocyclohexyl)amino)quinazolin-8-yl)-2-fluoro-3-(pivalamidomethyl)benzamide] were, in that order, 98.8%, 99.4% and under 50 nM.
On to `CC(C)(C)C(=O)NCc1ccc(Cl)c(C(=O)Nc2cccc3c(Nc4cccc(C(F)(F)F)c4)ncnc23)c1F` [Example-12, 6-Chloro-2-fluoro-3-(pivalamidomethyl)-N-(4-((3-(trifluoromethyl)phenyl)amino)quinazolin-8-yl)benzamide], for which the inhibition at 1 µM stood at 99.4%, the inhibition at 10 µM is 99.7% and the IC50 is under 50 nM.
Regarding `CC1(C)CCC(Nc2ncnc3c(NC(=O)c4c(Cl)ccc(CNC(=O)C(C)(C)C)c4F)cccc23)CC1` [Example-22, 6-Chloro-N-(4-((4,4-dimethylcyclohexyl)amino)quinazolin-8-yl)-2-fluoro-3-(pivalamidomethyl)benzamide], the inhibition at 1 µM stood at 100%, the inhibition at 10 µM was determined as 99.6% and the concentration for half-maximal inhibition (IC50) was under 50 nM.
With `CC(C)(C)C(=O)NCc1ccc(Cl)c(C(=O)Nc2cccc3c(O[C@H]4CC[C@H](C(F)(F)F)CC4)nccc23)c1F` [Example-50, 6-Chloro-2-fluoro-3-(pivalamidomethyl)-N-(1-(((1r,4r)-4-(trifluoromethyl)cyclohexyl)oxy)isoquinolin-5-yl)benzamide], the inhibition at 1 µM amounted to 99.2%, the inhibition at 10 µM was 99.6% and the IC50 is under 50 nM.
For the compound `Cc1nc(Oc2cccc(C(F)(F)F)c2)c2cccc(NC(=O)c3c(Cl)ccc(CNC(=O)C(C)(C)C)c3F)c2n1` [Example-56, 6-Chloro-2-fluoro-N-(2-methyl-4-(3-(trifluoromethyl)phenoxy)quinazolin-8-yl)-3-(pivalamidomethyl)benzamide], the inhibition at 1 µM is 97.9%, the inhibition at 10 µM was determined as 99.3% and the half-maximal inhibitory concentration (IC50) lay within 50 to 100 nM.
Consider `CC(C)(C)C(=O)NCc1ccc(Cl)c(C(=O)Nc2cccc3c(Oc4ccc(F)c(C(F)(F)F)c4)ccnc23)c1F` [Example-51, 6-Chloro-2-fluoro-N-(4-(4-fluoro-3-(trifluoromethyl)phenoxy)quinolin-8-yl)-3-(pivalamidomethyl)benzamide], for which the inhibition at 1 µM was 99.3%, the inhibition at 10 µM turned out to be 99.7% and the IC50 is under 50 nM.
The like results for `CC(C)(C)C(=O)NCc1ccc(Cl)c(C(=O)Nc2cccc3c(Oc4cccc(C(F)(F)F)c4)nccc23)c1` [Example-7, 2-Chloro-5-(pivalamidomethyl)-N-(1-(3-(trifluoromethyl)phenoxy)isoquinolin-5-yl)benzamide] were, in that order, 100%, 96.7% and under 50 nM.
The like results for `CC(C)(C)Nc1ncnc2c(NC(=O)c3c(Cl)ccc(CNC(=O)C(C)(C)CO)c3F)cccc12` [Example-69, N-(4-(tert-Butylamino)quinazolin-8-yl)-6-chloro-2-fluoro-3-((3-hydroxy-2,2-dimethylpropanamido)methyl)benzamide] were, in that order, 84.9%, 98.2% and under 50 nM.
With `CC(C)(C)C(=O)NCc1ccc(Cl)c(C(=O)Nc2cccc3c(NC4CCC(F)(F)CC4)ncnc23)c1` [Example-14, 2-Chloro-N-(4-((4,4-difluorocyclohexyl)amino)quinazolin-8-yl)-5-(pivalamidomethyl)benzamide], the inhibition at 1 µM was determined as 100%, the inhibition at 10 µM came out at 100% and the IC50 is under 50 nM.
With `CC(C)(C)C(=O)NCc1ccc(Cl)c(C(=O)Nc2cccc3c(Oc4ccc(F)c(C(F)(F)F)c4)nccc23)c1` [Example-48, 2-Chloro-N-(1-(4-fluoro-3-(trifluoromethyl)phenoxy)isoquinolin-5-yl)-5-(pivalamidomethyl)benzamide], the inhibition at 1 µM turned out to be 91.1%, the inhibition at 10 µM is 95.2% and the concentration for half-maximal inhibition (IC50) is under 50 nM.
The like results for `CC(C)(C)C(=O)NCc1ccc(Cl)c(C(=O)Nc2cccc3c(Nc4cccc(C(F)(F)F)c4)ncnc23)n1` [Example-8, 3-Chloro-6-(pivalamidomethyl)-N-(4-((3-(trifluoromethyl)phenyl)amino)quinazolin-8-yl)picolinamide] were, in that order, 99%, 98% and under 50 nM.
For the compound `CC(C)(C)C(=O)NCc1ccc(Cl)c(C(=O)Nc2cccc3c(O[C@H]4CC[C@H](C(F)(F)F)CC4)ncnc23)c1F` [Example-27, 6-Chloro-2-fluoro-3-(pivalamidomethyl)-N-(4-(((1r,4r)-4-(trifluoromethyl)cyclohexyl)oxy)quinazolin-8-yl)benzamide], the inhibition at 1 µM was determined as 94.4%, the inhibition at 10 µM was determined as 93.9% and the half-maximal inhibitory concentration (IC50) was under 50 nM.
For `CC(C)(C)Nc1ncnc2c(NC(=O)c3cc(CNC(=O)C(C)(C)C)ccc3Cl)cccc12` [Example-67, N-(4-(tert-Butylamino)quinazolin-8-yl)-2-chloro-5-(pivalamidomethyl)benzamide] the same measures were 96.5%, 100% and under 50 nM.
Consider `CC(C)C(=O)NCc1cnc(C(F)F)c(C(=O)Nc2cccc3c(Oc4ccc(F)c(C(F)(F)F)c4)ccnc23)c1` [Example-80, 2-(Difluoromethyl)-N-(4-(4-fluoro-3-(trifluoromethyl)phenoxy)quinolin-8-yl)-5-(isobutyramidomethyl)nicotinamide], for which the inhibition at 1 µM was 99.7%, the inhibition at 10 µM amounted to 98.5% and the IC50 is under 50 nM.
For `CC1(C)CCC(Oc2ncnc3c(NC(=O)c4c(Cl)ccc(CNC(=O)C(C)(C)C)c4F)cccc23)CC1` [Example-24, 6-Chloro-N-(4-((4,4-dimethylcyclohexyl)oxy)quinazolin-8-yl)-2-fluoro-3-(pivalamidomethyl)benzamide] the same measures were 99.3%, 99.8% and under 50 nM.
For `CC(C)(C)C(=O)NCc1ccc(Cl)c(C(=O)Nc2cccc3c(Nc4ccc(C(F)(F)F)cc4)nccc23)c1` [Example-45, 2-Chloro-5-(pivalamidomethyl)-N-(1-((4-(trifluoromethyl)phenyl)amino)isoquinolin-5-yl)benzamide] the same measures were 99.6%, 98.3% and under 50 nM.

For the origin of these results see US9006257B2, “Bicyclic compounds as mPGES-1 inhibitors” (Glenmark Pharmaceuticals S.A., priority 2012, dated 2015).
